Measurements from paper PMC12973313 (Chemical Science, 2026).
Converted amounts (≈) assume the structure as drawn. “And” between values parts separate entries of the source, which are not always exact repeats. Identical values can stand only once. Like-named read-outs stand apart in the source and are kept apart here.

Columns and labels:
[1] = Surface tension (pendant drop) / CAC determination, H2O 5% EtOH; assay type: physicochemical; settings: for Surface tension (mN m^-1): H2O 5% EtOH, at limit of SSA solubility = 5.56 mM; for CAC: H2O/5 % EtOH, above the limit of solubility
Excerpt: Here, the CAC is defined as the concentration at which any additional SSA added to a solution will result in the production of high-order self-associated species. […] To determine CAC, we used the pendant drop method to elucidate the surface tension of H2O 5% EtOH solutions of 1, 3, 5, 7, 9, and 1 : 1 SSA enantiomeric mixtures at 291 K (Table 2).

[2] = tested on: S. aureus USA300; assay: MIC assay; assay type: cell-based; settings: Staphylococcus aureus
Experimental: (§1) Next generation SSAs 3, 5, 7, and 9 were specifically designed to increase the activity of SSAs against both drug susceptible and resistant S. aureus and ovarian cancer cells. […] These strains include: (i) USA300, a common clinically relevant, methicillin resistant strain;[47] […]
(§2) Section S3: Biological methods […]
(§3) Preparation of bacterial plates : Sterile TSB agar plates were streaked using the desired […]
(§4) Preparation of inoculum: An initial culture was made up by inoculating TSB (5 mL) with 3 single colonies of the desired bacteria under sterile conditions and incubated at 37 °C overnight. The optical density at 600 nm (OD 600) was adjusted using sterile distilled H 2O (dH2O) to equal ~1 x 10^6 bacteria/mL.
(§5) Preparation of 96 -well microplate : A solution of each compound in H2O/5 % EtOH was made […]
(§6) The compound solution (200 […]
(§7) µL) was added to and diluted 50:50 down the plate. The bacterial suspension (100 µL) was dispensed into each well under sterile conditions. […]

[3] = tested on: S. aureus ATCC 9144; assay: MIC assay; assay type: cell-based, Staphylococcus aureus
Experimental: as §1, §2, §3, §4, §5, §6, §7

[4] = tested on: S. aureus NCTC 13616; assay: MIC assay; assay type: cell-based, Staphylococcus aureus
Experimental: as §1, §2, §3, §4, §5, §6, §7

[5] = 1H NMR dilution study, self-association constants (Bindfit v0.5); assay type: physicochemical; settings: 298 K; for Kdim, CoEK model / Ke, CoEK model / Ke, EK model / ρ, CoEK model: DMSO-d6/0.5 % H2O; for Kdim / Kdim (M^-1): equal K/dimerization model, DMSO-d6 0.5% H2O
Experimental: This enables the quantification of parameters such as SSA anion dimerization constant which we have shown to correlate with critical aggregation concentration (CAC) values obtained from aqueous solutions of that same SSA.[30]
Figure S40 – Graph illustrating the 1H NMR down-field change in chemical shift of urea NH
resonances with increasing concentration of 9 in DMSO-d6/0.5 % H2O (298 K).
Self-association constant calculation: values were calculated from data gathered from both
NH’s and fitted to the Cooperative Equal K (CoEK) and Equal K/ dimerization binding models.
Equal K/Dimerization model:
Table S8- The self-association constants (Ke and Kdim) calculated for 3, 5, 7 and 9 in DMSO-d6/
0.5 % H2O solution at 298 K. Constants were obtained for the EK and CoEK models by fitting
1H NMR self-association data to Bindfit v0.5.
EK model (M-1) CoEK model (M-1)
Compound Ke Error Kdim Error Ke Error Kdim Error ⍴ Error
(± %) (± %) (± %) (± %) (± %)
(1 picture or pasted object on this page, not shown here)

[6] = 1H NMR titration, host:guest association; settings: 1:1 binding isotherm, DMSO-d6 0.5% H2O, 298 K, guest as TBA salt
Excerpt: Here H2PO4^- was used to model the phosphate present in the phospholipid headgroup, while Cl^- was incorporated into these studies as a common biologically relevant anion. […] Summary […] using Bindfit v0.5,1 conducted in DMSO-d6/0.5 % H2O at 298 K. Anionic guest species were supplied as the TBA salt. Data was fitted to both 1:1, 1:2 and 2:1 binding isotherm. […] 94

[7] = tested on: E. Faecalis NCTC 775; assay: MIC assay; assay type: cell-based, Enterococcus faecalis; settings: for MIC: Enterococcus faecalis, NCTC775, lowest concentration with no visible growth
Experimental: as §2
Preparation of bacterial plates : Sterile TSB agar plates were streaked using the desired bacteria [Staphylococcus aureus (9144, 13616, USA 300 and 1199B ), Enterococcus faecalis (NCTC 775 and 12201 ) and Enterococcus faecium (NCTC 12204)] and incubated at 37 °C […]
as §4, §5
. The compound solution (200
[…]. The bacterial suspension (100 µL) was dispensed into each well under sterile conditions. The plates were sealed using parafilm and incubated at 37 °C for 20 hours, after which the OD 600 was measured.

[8] = Quantitative 1H NMR, DMSO-d6 1% DCM (self-association); assay type: physicochemical; settings: 112 mM, 298 K, proportion NMR silent
Excerpt: Initially, quantitative (Q) ^1H NMR spectroscopy experiments were undertaken in DMSO-d6 1% DCM, using the DCM as an internal standard to identify the presence of either low or high order SSA self-associated aggregates. Here, low-order SSA self-associated aggregates are defined as those directly observable using traditional solution state ^1H NMR spectroscopy such as the formation of hydrogen bonded anionic dimers. To determine the presence of low or high-order SSA aggregates, signals corresponding to the anionic or cationic component of the SSA are integrated against those of the internal DCM standard.

[9] = Haemolysis assay; assay type: cell-based; settings: human, human red blood cells (erythrocytes), pH 7.4, 1.39 mM total molecular concentration, 37 °C
Experimental: Preparation of 96-well plate: Protocol modified from Travis et al.4 Heparinised human red blood cells collected from a volunteer and washed three times in PBS (pH 7.4). Compounds were serial diluted using PBS buffer across a 96-well V bottom Greiner plate. Negative control (100 µL PBS), and positive control (100 µL 0.1 % (v/v) Triton-X-100) were added to the plate.
100 µL of 10 % (v/v) of blood suspension added to all wells. Plates were incubated for 60 minutes at 37 °C. After incubation, plates were centrifuged for 15 minutes at 4680 rpm. The resultant supernatant was then transferred to a 96-well flat bottom plate and absorbance read at 540 nm (Fluostar Omega). Percent haemolysis was calculated using the formula as
Equation S2 - Percentage haemolysis calculation.
Haemolysis (%) = 𝐴𝑠𝑎𝑚𝑝𝑙𝑒 − 𝐴𝑛𝑒𝑔𝑎𝑡𝑖𝑣𝑒 𝑋 100

[10] = USA300, 15 h, total molecular concentration, after 900 min, read-out: MIC USA300
[11] = Staphylococcus aureus, ATCC9144, 15 h, total molecular concentration, after 900 min, read-out: MIC ATCC 9144
[12] = Staphylococcus aureus, ATCC9144, lowest concentration with no visible growth, read-out: MIC (mM) S. aureus 9144
[13] = Staphylococcus aureus, NCTC13616, 15 h, total molecular concentration, after 900 min, read-out: MIC NCTC 13616
[14] = Staphylococcus aureus, NCTC13616, lowest concentration with no visible growth, read-out: MIC (mM) S. aureus 13616
[15] = lowest concentration with no visible growth, listed as 5
[16] = USA300, lowest concentration with no visible growth, read-out: MIC (mM) S. aureus USA 300

Structure (SMILES)	CAC [1] [mM]	MIC [2, 10] [mM]	MIC [3, 11] [mM]	MIC [3, 12] [mM]	MIC [4, 13] [mM]	MIC [4, 14] [mM]	Ka / Kass (M-1), guest Cl- [6]	Ka / Kass (M-1), guest H2PO4- [6]	MIC [7] [mM]	Q NMR (%) SSA anion [8] [%]	Q NMR (%) SSA cation [8] [%]	MIC [2, 16] [mM]	hemolysis at 60 min, 1.39 mM [9] [%]	Surface tension (mN m^-1) [1]	Kdim, CoEK model [5] [M⁻¹]	Ke, CoEK model [5] [M⁻¹]	Ke, EK model [5] [M⁻¹]	ρ, CoEK model [5]	Kdim [5] [M⁻¹]	Kdim (M^-1) [5]	also measured
CC(C)CC(NC(=O)Nc1ccc(C(F)(F)F)cc1)C(=O)O (stereo not drawn) [SSA 3]	> 5.56	> 2.78	0.087 (≈ 27.7 µg/mL)	0.087 (≈ 27.7 µg/mL)	0.087 (≈ 27.7 µg/mL)	0.087 (≈ 27.7 µg/mL)	No evidence of host: guest complex formation detected	No evidence of host: guest complex formation detected	> 2.78	0	0	–	–	–	–	–	–	–	–	–	Surface tension (mN m^-1) ([1]; listed as 3): 40.92 mN m^−1 and 40.92 ^c mN m^−1; Kdim, CoEK model ([5]; listed as 3): 280.45 M⁻¹; Ke, CoEK model ([5]; listed as 3): 560.90 M⁻¹; Ke, EK model ([5]; listed as 3): 242.72 M⁻¹; ρ, CoEK model ([5]; listed as 3): 2.29; Kdim ([5]; listed as 3): 121.36 M⁻¹; Kdim (M^-1) ([5]; listed as 3): 121 (±1.9%) M^−1
CC(C)CC(NC(=O)Nc1ccc(C(F)(F)F)cc1)C(=O)O (stereo not drawn) [SSA 5]	–	–	–	–	–	–	No evidence of host: guest complex formation detected	–	–	–	–	–	–	–	–	–	–	–	–	–	Surface tension (mN m^-1) ([1]; listed as 5): 40.92 mN m^−1 and 40.92 ^c mN m^−1; MIC (mM) S. aureus 9144 [3, 15]: 0.174 mM (≈ 55.4 µg/mL); MIC ([3]; total molecular concentration, after 900 min, listed as 5, read-out: MIC ATCC 9144): 0.174 mM (≈ 55.4 µg/mL); MIC (mM) S. aureus 13616 ([4]; lowest concentration with no visible growth): 0.087 mM (≈ 27.7 µg/mL); MIC ([4]; total molecular concentration, after 900 min, read-out: MIC NCTC 13616): 0.087 mM (≈ 27.7 µg/mL); Kdim, CoEK model ([5]; listed as 5): 175.90 M⁻¹; Ke, CoEK model ([5]; listed as 5): 351.80 M⁻¹; Ke, EK model ([5]; listed as 5): 180.55 M⁻¹; ρ, CoEK model ([5]; listed as 5): 3.41; Kdim ([5]; listed as 5): 90.27 M⁻¹; Kdim (M^-1) ([5]; listed as 5): 90 (±3.2%) M^−1; MIC (mM) E. Faecalis NCTC 775 [7, 15]: 2.780 mM (≈ 885 µg/mL)
O=C(O)CNC(=O)Nc1ccc(C(F)(F)F)cc1 [SSA 1]	–	> 2.78	1.39 (≈ 364 µg/mL)	1.39 (≈ 364 µg/mL)	> 2.78	> 2.78	4.33 M⁻¹	12.59 M⁻¹	> 2.78	–	–	> 2.78	0.29	–	–	–	–	–	–	–	–
O=C(Nc1ccc(C(F)(F)F)cc1)N[C@@H](Cc1ccccc1)C(=O)O [SSA 7]	> 5.56	0.087 (≈ 30.7 µg/mL)	0.087 (≈ 30.7 µg/mL)	0.087 (≈ 30.7 µg/mL)	0.087 (≈ 30.7 µg/mL)	0.087 (≈ 30.7 µg/mL)	–	30.27 M⁻¹ and 30 M⁻¹	> 2.78	0	0	0.087 (≈ 30.7 µg/mL)	0.47	39.83 mN m^−1 and 39.83 ^c mN m^−1	10.58	21.17	55.52	2.86	27.76	28 (±2.1%) M^−1	–
O=C(Nc1ccc(C(F)(F)F)cc1)N[C@H](Cc1ccccc1)C(=O)O [SSA 9]	> 5.56	0.087 (≈ 30.7 µg/mL)	0.174 (≈ 61.3 µg/mL)	0.174 (≈ 61.3 µg/mL)	0.087 (≈ 30.7 µg/mL)	0.087 (≈ 30.7 µg/mL)	No evidence of host: guest complex formation detected	–	2.78 (≈ 979 µg/mL)	0	0	0.087 (≈ 30.7 µg/mL)	–	39.64 mN m^−1 and 39.64 ^c mN m^−1	8.92	17.84	45.90	2.62	22.95	23 (±2.5%) M^−1	–
